The values below come from patent US6683103B2, “Sulfonamides for treatment of endothelin-mediated disorders” (Texas Biotechnology Corporation, priority 1997, dated 2004).

As a reminder, the melting point is the temperature, or range, at which the solid turns liquid.

The target in one series is T1, human ETA receptors (Homo sapiens, UniProt P25101).
T1 construct: endogenous in cells; host or cells: TE 671 cells (ATCC HTB 139)
T1 sequence (P25101 21-427): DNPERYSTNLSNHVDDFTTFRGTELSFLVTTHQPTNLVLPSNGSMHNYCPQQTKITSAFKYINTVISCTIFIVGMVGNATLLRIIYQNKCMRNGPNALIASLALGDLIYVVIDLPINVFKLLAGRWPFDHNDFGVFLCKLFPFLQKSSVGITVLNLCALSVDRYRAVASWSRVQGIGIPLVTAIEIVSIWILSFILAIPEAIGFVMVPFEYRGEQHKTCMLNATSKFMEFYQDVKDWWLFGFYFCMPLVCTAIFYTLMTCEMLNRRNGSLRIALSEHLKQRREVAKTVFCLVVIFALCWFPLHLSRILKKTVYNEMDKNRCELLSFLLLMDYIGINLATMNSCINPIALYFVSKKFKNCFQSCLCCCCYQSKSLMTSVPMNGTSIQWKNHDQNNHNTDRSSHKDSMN
The experiment in a line: Binding Test #1: inhibition of 125I-ET-1 binding to ETA receptors (TE 671 cell membranes). The note with it: for IC50: read-out: ETA. The procedure, abridged: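 Membranes from TE 671 cells (up to 8 μg protein) incubated with ¹²⁵I-ET-1 and compound (1 nM–100 μM final) in 30 mM HEPES pH 7.4, 150 mM NaCl, 5 mM MgCl2, 0.5% bacitracin, 16–18 h at 4 °C or alternatively at 24 °C. Nonspecific binding with 80 nM ET-1; bound pellet gamma-counted, % inhibition calculated, usually triplicate.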

Series [1] can be described thus: Oral half-life and peak plasma levels in rat. The series is classed as in vivo. The note with it: for Peak Plasma Levels: in vivo; for POt½ in Rat: oral. The text has this: As used herein, bioavailability refers to the rate and extent of absorption. Methods for determining bioavailability are well known to those of skill in the art. For example, bioavailability of any of the compounds described herein can be determined empirically by administration of the compound to an animal, followed by taking blood samples over time and measuring the blood concentration of the compound. In vivo half life (t½) is defined as the time it takes for the concentration of the compound in the blood to be reduced by one-half. Estimations of the area under the curve for intravenous administration can be used to estimate the area under the curve for oral administration, yielding bioavailability data. See, e.q., Milo Gibal (1991) Biopharmaceutics and Pharmacology, 4th edition (Lea and Sediger).
Table 4 lists oral half-life, bioavailability, and in vivo activity of selected exemplary compounds. The in vivo activity was measured in a pulmonary hypertension model and is a measure of the activity of the compounds at selected dosages.

For another series, the target named is T2, human ETB receptor (Homo sapiens, UniProt P24530).
T2 construct: expressed in transfected cells; host or cells: COS7 cells
T2 sequence (P24530 27-442): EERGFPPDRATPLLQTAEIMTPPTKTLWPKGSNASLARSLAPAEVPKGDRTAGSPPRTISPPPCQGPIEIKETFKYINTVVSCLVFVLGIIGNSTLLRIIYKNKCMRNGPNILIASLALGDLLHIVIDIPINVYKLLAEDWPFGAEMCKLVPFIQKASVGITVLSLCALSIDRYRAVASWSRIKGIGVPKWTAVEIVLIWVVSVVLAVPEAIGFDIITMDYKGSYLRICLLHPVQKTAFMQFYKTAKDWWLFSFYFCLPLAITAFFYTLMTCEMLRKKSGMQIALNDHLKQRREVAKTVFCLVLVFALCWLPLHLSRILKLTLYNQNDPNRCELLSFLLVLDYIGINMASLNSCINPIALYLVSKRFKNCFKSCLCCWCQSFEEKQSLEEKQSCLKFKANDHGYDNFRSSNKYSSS
The experiment in a line: Binding Test #2: inhibition of 125I-ET-1 binding to ETB receptors (transfected COS7 cell membranes). The note with it: read-out: ETB. The method, boiled down:
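Competition with 125I-ET-1 for binding to membranes from COS7 cells transfected with human ETB receptor, used at 1 μg/50 μl binding buffer. Membranes prepared in HEPES pH 7.4 with aprotinin, including a DNase/MnCl2 step at 37 °C for 30 min.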

[2] abbreviates: Table 3, † incubation at 24° C.
Where [3] appears, read: Table 1, † incubation at 24° C.
Setting [4] is: Table 2, † incubation at 24° C.

Read-outs that look alike come from different tables or passages of the source.

In the case of `Cc1cc(C)c(NC(=O)c2sccc2S(=O)(=O)Nc2onc(C)c2Cl)c(C(=O)C2CC2)c1` [3-(((4-chloro-3-methyl-5-isoxazolyl)amino)sulfonyl)-N-(2-(cyclopropylcarbonyl)-4,6-dimethylphenyl)-2-thiophenecarboxamide], the ETA/ETB selectivity on human ETA receptors (Table 3) is 45000^∥. Also, the IC50 at human ETA receptors (setting [2]) stood at 0.36 nM. For the same compound, in series [1], the “Peak Plasma Levels” value turned out to be 53 µg/mL and the “POt½ in Rat” value came to 5.5 h.

Consider `Cc1cc(C)c(NC(=O)c2sccc2S(=O)(=O)Nc2onc(C)c2Cl)c(C(=O)C(C)C)c1` [3-(((4-chloro-3-methyl-5-isoxazolyl)amino)sulfonyl)-N-(2-isobutyryl-4,6-dimethylphenyl)-2-thiophenecarboxamide], for which, on human ETA receptors (Table 3), the ETA/ETB selectivity is 14000^∥. Also, at human ETA receptors (setting [2]), the IC50 turned out to be 1.11 nM. In series [1], the “Peak Plasma Levels” value worked out at 59 µg/mL and the “POt½ in Rat” value amounted to 5.4 h.

For the compound `Cc1noc(NS(=O)(=O)c2ccc(-c3ccon3)s2)c1Br` [Example 10, N-(4-Bromo-3-methyl-5-isoxazolyl)-5-(3-isoxazolyl)thiophene-2-sulfonamide], the melting point lay within 120 to 123 °C.

Regarding `Cc1cc(C)c(NC(=O)c2sccc2S(=O)(=O)Nc2onc(C)c2Cl)c(C)c1C#N` [N-(4-chloro-3-methyl-5-isoxazolyl)-2-(3-cyano-2,4,6-trimethylphenylaminocarbonyl)thiophene-3-sulfonamide], in series [1], the “Peak Plasma Levels” value came out at 20 µg/mL and the “POt½ in Rat” value is 3.9 h.

Take `Cc1cc(C)c(NC(=O)c2sccc2S(=O)(=O)Nc2onc(C)c2Cl)c(C)c1CC#N` [N-(4-chloro-3-methyl-5-isoxazolyl)-2-(3-cyanomethyl-2,4,6-trimethylphenylaminocarbonyl)thiophene-3-sulfonamide]: at human ETA receptors (setting [3]), the IC50 worked out at 0.6 nM. In addition, the IC50 at human ETB receptor (setting [3]) is around 45000 nM. Besides, in series [1], the “Peak Plasma Levels” value is 40.2 µg/mL and the “POt½ in Rat” value was found to be 3.4 h.

As for `Cc1cc(C)c(NC(=O)c2sccc2S(=O)(=O)Nc2onc(C)c2Cl)c(C)c1CO` [N-(4-chloro-3-methyl-5-isoxazolyl)-2-(3-hydroxymethyl-2,4,6-trimethylphenylaminocarbonyl)thiophene-3-sulfonamide], the IC50 on human ETA receptors (setting [3]) is 0.4 nM. The IC50 at human ETB receptor (setting [3]) was around 80000 nM. In series [1], the “Peak Plasma Levels” value was found to be 3 µg/mL and the “POt½ in Rat” value was 1.5 h.

For the compound `Cc1cc(C)c(NS(C)(=O)=O)c(C)c1NC(=O)c1sccc1S(=O)(=O)Nc1onc(C)c1Cl` [N-(4-chloro-3-methyl-5-isoxazolyl)-2-(3-methanesulfonylamino-2,4,6-trimethylphenylaminocarbonyl)thiophene-3-sulfonamide], in series [1], the “Peak Plasma Levels” value came out at 2.6 µg/mL and the “POt½ in Rat” value was 5.9 h.

Regarding `COc1ccc2c(S(=O)(=O)Nc3onc(C)c3Cl)c(Cc3ccc4c(c3)OCO4)sc2c1` [N-(4-chloro-3-methyl-5-isoxazolyl)-6-methoxy-2-[3,4-(methylenedioxy)benzyl]benzo[b]thiophene-3-sulfonamide], the results for the IC50 at human ETA receptors (setting [3]) and at human ETB receptor (setting [3]) were around 2000 nM and 2390 nM, respectively.

Turning to `Cc1noc(NS(=O)(=O)c2ccsc2C(=O)OC2CCCCC2)c1Cl` [N-(4-chloro-3-methyl-5-isoxozolyl-2-(cyclohexyloxycarbonyl)thiophene-3-sulfonamide], the IC50 on human ETA receptors (setting [3]) came out at 440 nM; on human ETB receptor (setting [3]) it was 34000 nM.

In the case of `Cc1onc(NS(=O)(=O)c2c(Cc3ccc4c(c3)OCO4)sc3ccccc23)c1Cl` [N-(4-chloro-5-methyl-3-isoxazolyl)-2-[3,4-(methylenedioxy)benzyl]benzo[b]thiophene-3-sulfonamide], the IC50 at human ETA receptors (setting [3]) was 5.5 nM; on human ETB receptor (setting [3]), 364 nM.

As for `Cc1onc(NS(=O)(=O)c2ccc(-c3ccccc3)cc2)c1Cl` [N-(4-chloro-5-methyl-3-isoxazolyl)-4-biphenylsulfonamide], the IC50 is 3700 nM on human ETA receptors (Table 2, incubation at 4° C.); 18600 nM on human ETA receptors (setting [4]); 230 ± 10 nM at human ETB receptor (Table 2, incubation at 4° C.); 1290 nM at human ETB receptor (setting [4]).

Take “N-2-[3,4-(methylenedioxy)phenylacetyl]thiophene-3-sulfonamide”: the figures for the IC50 at human ETA receptors (setting [3]) and at human ETB receptor (setting [3]) were 1800 nM and 32500 nM, respectively.

Take “N-(3,4-dimethyl-5-isoxazolyl)-2-(4-tolylacetylphenyl)thiophene-3-sulfonamide”: the values for the IC50 on human ETA receptors (setting [3]) and on human ETB receptor (setting [3]) were 2.7 nM and 29200 nM, respectively.

In the case of “N-(4-bromo-3-methyl-5-isoxazolyl)-1-[3,4-(methylenedioxy)benzyl]indole-2-sulfonamide”, the figures for the IC50 on human ETA receptors (setting [3]) and on human ETB receptor (setting [3]) were 5290 nM and 18600 nM, respectively.

In the case of “N-(4-bromo-3-methyl-5-isoxazolyl)-2′-methoxyphenyl-4-biphenylsulfonamide”, the IC50 amounted to 3300 ± 3500 nM on human ETA receptors (Table 2, incubation at 4° C.) and 410 ± 140 nM on human ETB receptor (Table 2, incubation at 4° C.).

On to “N-(4-bromo-3-methyl-5-isoxazolyl)-3′,4′-methylenedioxyphenyl-4-biphenylsulfonamide”, for which the results for the IC50 at human ETA receptors (setting [4]) and at human ETB receptor (setting [4]) were 38200 ± 4950 nM and 3000 ± 780 nM, respectively.

For “N-(4-bromo-3-methyl-5-isoxazolyl)-3′-methoxyphenyl-4-biphenylsulfonamide”, the IC50 at human ETA receptors (Table 2, incubation at 4° C.) turned out to be 4970 ± 3400 nM; on human ETA receptors (setting [4]), 163000 ± 7140 nM; at human ETB receptor (Table 2, incubation at 4° C.), 660 ± 250 nM; on human ETB receptor (setting [4]) it was 2080 ± 230 nM.

As for “N-(4-bromo-3-methyl-5-isoxazolyl)-4′-methoxyphenyl-4-biphenylsulfonamide”, the IC50 worked out at 14700 ± 5600 nM on human ETA receptors (Table 2, incubation at 4° C.); 122000 ± 2120 nM at human ETA receptors (setting [4]); 1150 ± 440 nM at human ETB receptor (Table 2, incubation at 4° C.).

For the compound “N-(4-bromo-3-methyl-5-isoxazolyl)-4′-methylphenyl-4-biphenylsulfonamide”, the IC50 on human ETA receptors (Table 2, incubation at 4° C.) amounted to 14500 ± 9600 nM; on human ETA receptors (setting [4]) it was 22200 ± 3770 nM; at human ETB receptor (Table 2, incubation at 4° C.), 46 ± 44 nM; on human ETB receptor (setting [4]) it was 168 ± 3.2 nM.

As for “N-(4-bromo-3-methyl-5-isoxazolyl)-4′-trifluorophenyl-4-biphenylsulfonamide”, the IC50 came out at 5400 ± 300 nM on human ETA receptors (Table 2, incubation at 4° C.); 25900 ± 13700 nM at human ETA receptors (setting [4]); 83 ± 20 nM at human ETB receptor (Table 2, incubation at 4° C.); 710 ± 430 nM at human ETB receptor (setting [4]).

Regarding “N-(4-bromo-5-methyl-3-isoxazolyl)-5-(4-methylphenyl)thiophene-2-sulfonamide”, the IC50 at human ETA receptors (Table 1, incubation at 4° C.) turned out to be 7100 nM; on human ETA receptors (setting [3]), 15800 nM; at human ETB receptor (Table 1, incubation at 4° C.) it was 359 nM; at human ETB receptor (setting [3]), 250 nM.

In the case of “N-(4-chloro-3-methyl-5-isoxazolyl)-2-[2-hyroxyproyl-4,5-(methylenedioxy)phenylaminocarbonyl]thiophene-3-sulfonamide”, the values for the IC50 at human ETA receptors (setting [3]) and at human ETB receptor (setting [3]) were 7.3 nM and 8300 nM, respectively.

For the compound “N-(4-chloro-3-methyl-5-isoxazolyl)-2-[2-methyl-4,5-(methylenedioxy)phenylhydroxyimino]thiophene-3-sulfonamide”, the IC50 at human ETA receptors (setting [3]) turned out to be 794 nM; at human ETB receptor (setting [3]), 6490 nM.

On to “N-(4-chloro-3-methyl-5-isoxazolyl)-2-[β-(dimethylamino)-3,4-(methylenedioxy)phenethyl]thiophene-3-sulfonamide”, for which the values for the IC50 on human ETA receptors (setting [3]) and at human ETB receptor (setting [3]) were 20900 nM and around 100000 nM, respectively.

“N-(4-chloro-3-methyl-5-isoxazolyl)-2-[β-acetoxy-2-methyl-4,5-(methylenedioxy)styryl]thiophene-3-sulfonamide”: the IC50 came to 5.44 nM at human ETA receptors (Table 1, incubation at 4° C.) and 3740 nM on human ETB receptor (setting [3]).

Take “N-(4-chloro-3-methyl-5-isoxazolyl)-2-phenylbenzo[b]thiophene sulfonamide”: the IC50 at human ETA receptors (setting [3]) amounted to 932 nM; at human ETB receptor (setting [3]), 46800 nM.
